Assay [1] concerns rat aorta contracted using phenylephrine. The conditions noted are these: cited from earlier work.
For assay [2], the system named is angiotensin converting enzyme (ACE). The conditions noted are these: literature, WO 89/12627, cited from earlier work.
The next assay deals with contracted rat aorta. The assay is described as follows: In vitro rat aorta assay: relaxation of aorta strips contracted with phenylephrine. The conditions noted are these: rat aorta strips contracted with 10^-7 M phenylephrine; read-out: EC50 (mean): concentration at which residual contraction is 50% of maximum. It is filed as cell-based. On the procedure: Strips of thoracial rat aortae (without aortic arch, helically cut; length 1-1.5 cm; width about 2 mm) were place in an organ bath [20 ml; Krebs Ringer medium bubbled with O2 /CO2 (95/5%) at 37° C.]. A resting tension of 0.5 g was applied and the preparations were equilibrated during 100 min (fresh buffer solution every 20 min). The strips were isotonically contracted with 10^-7 M phenylephrine.
Drug-induced relaxation was tested at increasing concentration (half log steps), till maximal or full relaxation (corresponding to basal precontraction value of organ length) had been reached.
Responses were calculated as change in organ length relatively to maximal displacement by contraction, EC50 values corresponding to the drug concentration at which residual contraction is 50% of maximum.

Another assay concerns arterial blood pressure. Kind of assay: Anesthetized rabbit experiments: arterial blood pressure and heart rate after infusion. Also: key: Inactive: No decrease or decrease less than 5%; Active: Decrease between 5 and 40%; Very Active: Decrease greater than 40%. Format: in vivo, New Zealand white rabbits. The conditions noted are these: anesthetized rabbit; end of 10 min infusion at highest dose tested (150-200 μg×kg^-1×min^-1); decrease as percentage of basal value. Here is the method:
In the anesthetized rabbits, the decrease of arterial blood pressure and the effect on the heart rate after infusion of the test compounds was determined.
New Zealand white rabbits (2.5-3 kg) were anesthetized (30 mg×kg^-1 pentobarbitone, i.v., supplemental doses as needed). Tracheotomy was performed, and an intra-tracheal cannula was inserted. No artificial ventilation was applied and body temperature was maintained at 37°-38° C.
Left ventricular pressure (LVP) was measured (Millar Mikro-Tip catheter via the right carotid artery with transducer in the left ventricle). The LVP signal was differentiated electronically to obtain the rate of change of LVP (LV dP/dt). The heart rate (HR) was derived from the LVP pulse signal. The jugular vein was cannulated for infusion of the test compounds. Aortic blood pressure (SAP and DAP) was monitored (Gould-Statham pressure transducer) by inserting a polyethylene catheter filled with heparin (50 IU×ml^-1) through the femoral artery into the abdominal aorta. Heparin (150 IU×kg^-1, i.v.) was administered to prevent blood clotting.
After completion of surgical procedures, the rabbits were allowed to recover for 15 minutes before drug administration was started.
Drugs were infused at constant rate (0.5 ml×min^-1) for 10 minutes at various doses, resulting in a typical dose range of 2.0, 20.0 and 200 μg×kg^-1 ×min^-1 (2.5 kg rabbit).
Due to poor solubility, 1 mg×ml^-1 solutions of all the compounds tested were prepared in Intralipid® 10%, containing 10% (v/v) dimethyl sulfoxide (DMSO). […] At the infusion of lower doses, the 1 mg×ml^-1 stock solutions were diluted with Intralipid® 10%.
The presented data are based on the effects obtained at the end of the 10 min infusion period at the highest dose tested (150-200 μg×kg^-1 ×min^-1). The indicated ratings are referring to the effects (decrease, defined as percentage of basal value before infusion of the drug) on arterial blood pressure as follows: […]

Structures can show the parent of a compound that is named as a salt.

The values below come from US5385922A, “Thiazolidine derivatives” (Cedona Pharmaceuticals B.V., priority 1990, dated 1995).

What is called IC50 is the concentration that inhibits the measured activity by half.

`C[C@H](CSN=O)C(=O)N1CCC[C@H]1C(=O)O` [S-ni-trosocaptopril]: the IC50 in assay [1] (rat aorta contracted using phenylephrine, read-out: relaxing effect via the NO portion, IC50) is approximately 100 nM; in assay [2] (read-out: ACE-inhibiting effect IC50), approximately 1 nM. In addition, the “relaxing concentration relative to ACE-inhibiting concentration” value in assay [1] (relaxation IC50 vs ACE-inhibition IC50) is “about 100 times higher”. Also, in assay [2], the “ACE-inhibiting effect compared with captopril (in words)” value is reported as “comparable to that of captopril”.
As for `O=[N+]([O-])OCCOc1ccccc1C1NCCS1` (stereo not drawn) [XXVII, 2-[(2-Nitroxyethoxy)phenyl]thiazolidine oxalate hydrate], in the assay with contracted rat aorta, the EC50 came out at 6.7 nM. In addition, the “Activity with regard to the lowering of blood pressure” value in the assay on arterial blood pressure is given as “Active”.
